ChEMBL document CHEMBL4483862, “Open-source discovery of chemical leads for next-generation chemoprotective antimalarials” (2018)

System: Plasmodium berghei
Assay: Luciferase/luciferin-expressing antifolate-resistant parasites were used to infect a culture of HepG2 cells that were pre-incubated with compounds. Infected hepatocytes emit light due to the luciferase reaction. Assay results are presented as the percent inhibition of light emission compared to control. […]
Assay type: functional
Conditions: sporozoite; for IC90: read-out: LUCIFERASE INFECTION ASSAY - IC90

Structure (SMILES)	IC90 [µM]	also measured
COCCCNC1=NN=C(c2cc(C)n(-c3ccccc3F)c2C)CS1	9.7	IC50 (HEPG2TOX_HILL_SLOPE 3.65, HEPG2TOX_R_SQUARED 0.669, PBLUC_HILL_SLOPE 1.05, PBLUC_R_SQUARED 0.653, read-out: LUCIFERASE INFECTION ASSAY - IC50): 1.2 µM
COc1cc(/C=C2\COC/C(=C\c3ccc(O)c(OC)c3)C2=O)ccc1O	> 8.96	IC50 (HEPG2TOX_HILL_SLOPE 3.66, HEPG2TOX_R_SQUARED 0.976, PBLUC_HILL_SLOPE 1.71, PBLUC_R_SQUARED 0.466, read-out: LUCIFERASE INFECTION ASSAY - IC50): > 8.96 µM
O=C(c1cnc2ccc3ccccc3c2c1)c1cc(F)ccc1O	> 10	IC50 (HEPG2TOX_HILL_SLOPE 3.61, HEPG2TOX_R_SQUARED 0.979, PBLUC_HILL_SLOPE 3.48, PBLUC_R_SQUARED 0.782, read-out: LUCIFERASE INFECTION ASSAY - IC50): 5.41 µM
CCc1ccc(NC(=O)C[n+]2c3n(c4c(F)c(F)ccc42)CCCCC3)cc1	9.39	IC50 (HEPG2TOX_HILL_SLOPE 3.71, HEPG2TOX_R_SQUARED 0.507, PBLUC_HILL_SLOPE 2.96, PBLUC_R_SQUARED 0.697, read-out: LUCIFERASE INFECTION ASSAY - IC50): 4.47 µM
CN1/C(=C\C(=O)C[n+]2cccc(Br)c2)C(C)(C)c2ccccc21	> 10	IC50 (HEPG2TOX_HILL_SLOPE 3.72, HEPG2TOX_R_SQUARED 0.897, PBLUC_HILL_SLOPE 2.59, PBLUC_R_SQUARED 0.674, read-out: LUCIFERASE INFECTION ASSAY - IC50): 4.52 µM
CC(C(=O)Nc1cccnc1)c1ccc2c(c1)[nH]c1ccc(Cl)cc12 (configuration not stated)	> 9.43	IC50 (HEPG2TOX_HILL_SLOPE 3.6, HEPG2TOX_R_SQUARED 0.842, PBLUC_HILL_SLOPE 14.2, PBLUC_R_SQUARED 0.432, read-out: LUCIFERASE INFECTION ASSAY - IC50): 8.79 µM
O=C(Nc1nonc1-c1cccs1)c1sc2ccccc2c1Cl	3.36	IC50 (HEPG2TOX_HILL_SLOPE 3.76, HEPG2TOX_R_SQUARED 0.735, PBLUC_HILL_SLOPE 21.7, PBLUC_R_SQUARED 0.795, read-out: LUCIFERASE INFECTION ASSAY - IC50): 3.04 µM
COc1ccc(-c2cnc3cnc(-c4ccc(O)cc4)cn23)cc1	> 10.4	IC50 (HEPG2TOX_HILL_SLOPE 3.68, HEPG2TOX_R_SQUARED 0.904, PBLUC_HILL_SLOPE 3.01, PBLUC_R_SQUARED 0.439, read-out: LUCIFERASE INFECTION ASSAY - IC50): 5.92 µM
O=C(NCc1cn(-c2ccccc2)nc1-c1ccc(Cl)s1)c1ccccc1C(F)(F)F	> 10	IC50 (HEPG2TOX_HILL_SLOPE 3.63, HEPG2TOX_R_SQUARED 0.948, PBLUC_HILL_SLOPE 1.32, PBLUC_R_SQUARED 0.654, read-out: LUCIFERASE INFECTION ASSAY - IC50): 2.44 µM
O=C(Nc1cc(C(F)(F)F)cc(C(F)(F)F)c1)Nc1sccc1Cl	2.93	IC50 (HEPG2TOX_HILL_SLOPE 3.73, HEPG2TOX_R_SQUARED 0.682, PBLUC_HILL_SLOPE 3.61, PBLUC_R_SQUARED 0.656, read-out: LUCIFERASE INFECTION ASSAY - IC50): 1.59 µM
O=S(=O)(Nc1cc(-c2ccc(Cl)cc2)nn1-c1ccc(I)cc1)c1cccc(F)c1	2.83	IC50 (HEPG2TOX_HILL_SLOPE 3.73, HEPG2TOX_R_SQUARED 0.889, PBLUC_HILL_SLOPE 8.27, PBLUC_R_SQUARED 0.455, read-out: LUCIFERASE INFECTION ASSAY - IC50): 2.17 µM
CN(C)c1ccc(C(c2ccc(OC(F)F)cc2)c2ccc(N(C)C)cc2)cc1	6.27	IC50 (HEPG2TOX_HILL_SLOPE 3.6, HEPG2TOX_R_SQUARED 0.971, PBLUC_HILL_SLOPE 3.21, PBLUC_R_SQUARED 0.781, read-out: LUCIFERASE INFECTION ASSAY - IC50): 3.16 µM
O=C(/C=C/c1cc([N+](=O)[O-])ccc1Cl)c1ccc(N2CCOCC2)c(F)c1	> 10	IC50 (HEPG2TOX_HILL_SLOPE 3.72, HEPG2TOX_R_SQUARED 0.763, PBLUC_HILL_SLOPE 12.8, PBLUC_R_SQUARED 0.291, read-out: LUCIFERASE INFECTION ASSAY - IC50): 8.87 µM
NC(=O)c1cccc(-c2ccc3ncc(-c4cccnc4)n3n2)c1	5.41	IC50 (HEPG2TOX_HILL_SLOPE 3.58, HEPG2TOX_R_SQUARED 0.988, PBLUC_HILL_SLOPE 1.15, PBLUC_R_SQUARED 0.587, read-out: LUCIFERASE INFECTION ASSAY - IC50): 0.804 µM
CN(c1ccccc1)c1ccc(CN2CCC3(CC2)C(=O)N(CCc2ccccc2)C(=O)N3C)cc1	3.1	IC50 (HEPG2TOX_HILL_SLOPE 3.73, HEPG2TOX_R_SQUARED 0.979, PBLUC_HILL_SLOPE 9.4, PBLUC_R_SQUARED 0.597, read-out: LUCIFERASE INFECTION ASSAY - IC50): 2.46 µM
CCOC(=O)c1c(S(=O)(=O)Nc2ccc(OC(F)(F)F)cc2)c(-c2ccccc2)n(-c2ccccc2)c1C	> 6.06	IC50 (HEPG2TOX_HILL_SLOPE 3.6, HEPG2TOX_R_SQUARED 0.938, PBLUC_HILL_SLOPE 3.83, PBLUC_R_SQUARED 0.0999, read-out: LUCIFERASE INFECTION ASSAY - IC50): 3.44 µM

Structure (SMILES)	IC90 [µM]	also measured
Fc1cccc(-c2cnc3cnc(-c4ccncc4)cn23)c1	> 11.4	IC50 (HEPG2TOX_HILL_SLOPE 3.65, HEPG2TOX_R_SQUARED 0.679, PBLUC_HILL_SLOPE 2.42, PBLUC_R_SQUARED 0.708, read-out: LUCIFERASE INFECTION ASSAY - IC50): 5.64 µM
COc1cccc(CN2CCN3C=C(C(=O)Nc4ccc(C(C)C)cc4)OC3=NC2=O)c1	9.3	IC50 (HEPG2TOX_HILL_SLOPE 3.72, HEPG2TOX_R_SQUARED 0.984, PBLUC_HILL_SLOPE 3.98, PBLUC_R_SQUARED 0.662, read-out: LUCIFERASE INFECTION ASSAY - IC50): 5.35 µM
COc1ncccc1C(=O)NNC(=O)c1nc(-c2ccccc2)n(-c2ccccc2)n1	3.43	IC50 (HEPG2TOX_HILL_SLOPE 3.74, HEPG2TOX_R_SQUARED 0.853, PBLUC_HILL_SLOPE 83.7, PBLUC_R_SQUARED 0.266, read-out: LUCIFERASE INFECTION ASSAY - IC50): 3.34 µM
Cc1[nH]c2ccccc2c1C(=O)NCC1(c2ccccc2)CCC1	> 10	IC50 (HEPG2TOX_HILL_SLOPE 3.6, HEPG2TOX_R_SQUARED 0.416, PBLUC_HILL_SLOPE 3.04, PBLUC_R_SQUARED 0.598, read-out: LUCIFERASE INFECTION ASSAY - IC50): 7.33 µM
CCOc1cc2cc(C(=O)c3cc(C)ccc3O)cnc2cc1OC	9.38	IC50 (HEPG2TOX_HILL_SLOPE 3.65, HEPG2TOX_R_SQUARED 0.956, PBLUC_HILL_SLOPE 5.3, PBLUC_R_SQUARED 0.515, read-out: LUCIFERASE INFECTION ASSAY - IC50): 6.19 µM
COC(=O)c1cc(C#N)c(S(C)(=O)=O)s1	> 13.5	IC50 (HEPG2TOX_HILL_SLOPE 3.75, HEPG2TOX_R_SQUARED 0.937, PBLUC_HILL_SLOPE 11, PBLUC_R_SQUARED 0.132, read-out: LUCIFERASE INFECTION ASSAY - IC50): 12.1 µM
O=C(NC1CCN(Cc2ccccc2)CC1)N1CCN(Cc2ccc(Br)s2)CC1	4.35	IC50 (HEPG2TOX_HILL_SLOPE 3.62, HEPG2TOX_R_SQUARED 0.356, PBLUC_HILL_SLOPE 12.1, PBLUC_R_SQUARED 0.388, read-out: LUCIFERASE INFECTION ASSAY - IC50): 3.62 µM
O=C(N/N=C/c1cc(Br)ccc1O)c1ccccc1Oc1ccccc1	7.69	IC50 (HEPG2TOX_HILL_SLOPE 3.72, HEPG2TOX_R_SQUARED 0.537, PBLUC_HILL_SLOPE 21.6, PBLUC_R_SQUARED 0.145, read-out: LUCIFERASE INFECTION ASSAY - IC50): 6.95 µM
CCCNC(=O)c1c(NC(=O)c2cccc(C#N)c2)nc2ccc(C)cn12	> 9.13	IC50 (HEPG2TOX_HILL_SLOPE 3.59, HEPG2TOX_R_SQUARED 0.259, PBLUC_HILL_SLOPE 11, PBLUC_R_SQUARED 0.773, read-out: LUCIFERASE INFECTION ASSAY - IC50): 8.46 µM
CC(C)(C)c1ccc(CSCCNC2=CC(=O)CC(c3ccc4c(c3)OCO4)C2)cc1 (configuration not stated)	> 7.54	IC50 (HEPG2TOX_HILL_SLOPE 3.72, HEPG2TOX_R_SQUARED 0.93, PBLUC_HILL_SLOPE 2.67, PBLUC_R_SQUARED 0.216, read-out: LUCIFERASE INFECTION ASSAY - IC50): 3.87 µM
O=C(Nc1cccc(S(=O)(=O)NC2CC2)c1)c1cc(-c2ccccc2)nn1-c1ccccc1	> 10	IC50 (HEPG2TOX_HILL_SLOPE 3.71, HEPG2TOX_R_SQUARED 0.26, read-out: LUCIFERASE INFECTION ASSAY - IC50): > 10 µM
COc1ccc(CN2C(=O)N(C)C3(CCN(Cc4ccc(N(C)c5ccccc5)cc4)CC3)C2=O)cc1	3.8	IC50 (HEPG2TOX_HILL_SLOPE 3.68, HEPG2TOX_R_SQUARED 0.977, PBLUC_HILL_SLOPE 4.63, PBLUC_R_SQUARED 0.726, read-out: LUCIFERASE INFECTION ASSAY - IC50): 2.36 µM
C=CCOc1ccccc1C(=O)Nc1nc2c(s1)CN(C(=O)OC(C)(C)C)CC2	4.73	IC50 (HEPG2TOX_HILL_SLOPE 3.68, HEPG2TOX_R_SQUARED 0.942, PBLUC_HILL_SLOPE 10.6, PBLUC_R_SQUARED 0.381, read-out: LUCIFERASE INFECTION ASSAY - IC50): 3.84 µM
Cc1cccc2nc(CSC(=S)NCc3cccnc3)cn12	> 10	IC50 (HEPG2TOX_HILL_SLOPE 3.71, HEPG2TOX_R_SQUARED 0.958, PBLUC_HILL_SLOPE 13, PBLUC_R_SQUARED 0.345, read-out: LUCIFERASE INFECTION ASSAY - IC50): 9.61 µM
Cc1nnnn1/C(=C\c1cccc(F)c1)C(=O)NC(C)c1cc2ccccc2o1 (configuration not stated)	4.08	IC50 (HEPG2TOX_HILL_SLOPE 3.7, HEPG2TOX_R_SQUARED 0.887, PBLUC_HILL_SLOPE 12.4, PBLUC_R_SQUARED 0.779, read-out: LUCIFERASE INFECTION ASSAY - IC50): 3.42 µM
